Measurements as given in patent EP0479888B1, “IMPROVED BUILDER-CONTAINING AQUEOUS CLEANER/DEGREASER MICROEMULSION COMPOSITIONS” (BUCKEYE INTERNATIONAL, INC., priority 1989, dated 1991).

Settings: water

CCCCOC(C)=O [n-butyl acetate]
aqueous ambient temperature solubility: 0.7 wt.%
